The nature of data set [1]: Hemolytic activity in male Sprague-Dawley rat erythrocytes at 100 uM incubated for 1 hr by absorbance based method relative to control. The data set is classed as toxicity, cell-based, Erythrocyte. The conditions noted are these: read-out: Activity.
A short description of data set [2]: Hemolytic activity in male Sprague-Dawley rat erythrocytes assessed as concentration required for 50% hemolysis incubated for 1 hr by absorbance based method. It is filed as toxicity, cell-based, Erythrocyte.
Data set [3] can be described thus: Selectivity index, ratio of HC10 for hemolytic activity in male Sprague-Dawley rat erythrocytes to MIC for antibacterial activity against Escherichia coli ATCC 25922. The data set is classed as toxicity. The conditions noted are these: read-out: Selectivity Index.
The subject of the next data set is Erythrocyte. As to the kind of experiment: Hemolytic activity in male Sprague-Dawley rat erythrocytes assessed as concentration required for 10% hemolysis incubated for 1 hr by absorbance based method. The data set is classed as toxicity, cell-based.
In another data set the test system is Escherichia coli. The data set can be described thus: Antibacterial activity against Escherichia coli ATCC 25922 assessed as inhibition of bacterial growth incubated for 24 hrs by broth dilution method. The data set is classed as functional. On the technique in general: In broth dilution the organism is exposed to a series of concentrations in liquid medium.

Data set [4] can be described thus: Hemolytic activity in male Sprague-Dawley rat erythrocytes at 50 uM incubated for 1 hr by absorbance based method relative to control. The conditions noted are these: read-out: Activity. The data set is classed as toxicity, cell-based, Erythrocyte.
In the next data set the test system is Staphylococcus aureus. As to the kind of experiment: Antibacterial activity against Staphylococcus aureus ATCC 25923 assessed as inhibition of bacterial growth incubated for 24 hrs by broth dilution method. It is filed as functional.
Data set [5] is described as follows: Hemolytic activity in male Sprague-Dawley rat erythrocytes at 25 uM incubated for 1 hr by absorbance based method relative to control. The data set is classed as toxicity, cell-based, Erythrocyte. The settings on record: read-out: Activity.

The record followed here is ChEMBL document CHEMBL5584354, “Impact of Conjugation of the Reactive Oxygen Species (ROS)-Generating Catalytic Moiety with Membrane-Active Antimicrobial Peptoids: Promoting Multitarget Mechanism and Enhancing Selectivity” (J Med Chem, 2024).

≈ marks a conversion by molar mass, not a printed value. Non-standard residues stand in square brackets, D forms with d. Residues, ends and D or L forms follow the SMILES beside them. *: point of attachment. X3 = NC(=O)[C@H](Cc1c[nH]cn1)NC(=O)CNC(=O)[C@@H](N)CN(CCc1c[nH]c2ccccc12)*; X2 = C[C@@H](c1ccccc1)N(C[C@H](N)C(=O)NCC(=O)N[C@@H](Cc1c[nH]cn1)C(N)=O)*; Gly(N(CH2)2(3-indolyl)) = O=C(O)CNCCc1c[nH]c2ccccc12; Nspe = C[C@H](NCC(=O)O)c1ccccc1; Nphe = O=C(O)CNCc1ccccc1; Nlys = NCCCCNCC(=O)O

The HC50 is the concentration that lyses half of the red blood cells. In general, MIC refers to the lowest concentration found to suppress growth.

Consider `C[C@@H](c1ccccc1)N(CC(=O)N(CCCCN)CC(=O)N(CC(=O)N(CC(=O)N(CCCCN)CC(=O)N(CC(=O)N(CC(N)=O)Cc1ccccc1)Cc1ccccc1)[C@@H](C)c1ccccc1)[C@@H](C)c1ccccc1)C(=O)CN(C(=O)CN(CCCCN)C(=O)CN(Cc1ccccc1)C(=O)CN(Cc1ccccc1)C(=O)CN(CCCCN)C(=O)[C@H](Cc1c[nH]cn1)NC(=O)CNC(=O)CN)[C@@H](C)c1ccccc1` (H-GGH[Nlys][Nphe][Nphe][Nlys][Nspe][Nspe][Nlys][Nspe][Nspe][Nlys][Nphe][Nphe]-NH2), for which the hemolysis at 1 h, 100 µM in data set [1] was found to be 18.4%. In data set [2], the HC50 at 1 h was above 100 µM. The selectivity ratio in data set [3] came to 4.5. Besides, the HC10 in the data set on Erythrocyte is 56.5 µM. The values for the MIC in the data set on Escherichia coli and with Staphylococcus aureus were 12.5 µM (≈ 25.2 µg/mL) and 25 µM (≈ 50.4 µg/mL), respectively. In addition, the hemolysis at 1 h, 50 µM in data set [4] was 8.68%. For the same compound, the hemolysis at 1 h, 25 µM in data set [5] worked out at 3.01%.
Consider `C[C@@H](c1ccccc1)N(CC(=O)N(CCCCN)CC(=O)N(CC(=O)N(CC(=O)N(CCCCN)CC(=O)N(CC(=O)N(CC(=O)N(CCCCN)CC(=O)N(CCc1c[nH]c2ccccc12)CC(=O)N(CCc1c[nH]c2ccccc12)CC(N)=O)Cc1ccccc1)Cc1ccccc1)Cc1ccccc1)Cc1ccccc1)C(=O)CN(Cc1ccccc1)C(=O)CN(CCCCN)C(=O)[C@H](Cc1c[nH]cn1)NC(=O)CNC(=O)CN` (H-GGH[Nlys][Nphe][Nspe][Nlys][Nphe][Nphe][Nlys][Nphe][Nphe][Nlys][Gly(N(CH2)2(3-indolyl))][Gly(N(CH2)2(3-indolyl))]-NH2), for which the hemolysis at 1 h, 100 µM in data set [1] turned out to be 40.6%. Besides, in data set [2], the HC50 at 1 h is above 100 µM. In data set [3], the selectivity ratio was 1.6. Also, in the data set with Erythrocyte, the HC10 was 20.6 µM. Moreover, the MIC with Escherichia coli was determined as 12.5 µM (≈ 26 µg/mL); with Staphylococcus aureus, 3.1 µM (≈ 6.44 µg/mL). The hemolysis at 1 h, 50 µM in data set [4] came out at 23.9%. Moreover, the hemolysis at 1 h, 25 µM in data set [5] worked out at 12.7%.
Turning to `C[C@@H](c1ccccc1)N(CC(N)=O)C(=O)CN(CCCCN)C(=O)CN(C(=O)CN(C(=O)CN(CCCCN)C(=O)CN(C(=O)CN(C(=O)CN(CCCCN)C(=O)CN(C(=O)CN(C(=O)CN(CCCCN)C(=O)[C@H](Cc1c[nH]cn1)NC(=O)CNC(=O)CN)[C@@H](C)c1ccccc1)[C@@H](C)c1ccccc1)[C@@H](C)c1ccccc1)[C@@H](C)c1ccccc1)[C@@H](C)c1ccccc1)[C@@H](C)c1ccccc1` (H-GGH[Nlys][Nspe][Nspe][Nlys][Nspe][Nspe][Nlys][Nspe][Nspe][Nlys][Nspe]-NH2), in data set [1], the hemolysis at 1 h, 100 µM stood at 61.6%. Moreover, the concentration for 50% haemolysis (HC50) at 1 h in data set [2] was 81.6 µM. The selectivity ratio in data set [3] came out at 1.8. Besides, the HC10 with Erythrocyte worked out at 22.9 µM. Also, the MIC was 12.5 µM (≈ 23.9 µg/mL) in the data set with Escherichia coli and 6.3 µM (≈ 12 µg/mL) in the data set on Staphylococcus aureus. The hemolysis at 1 h, 50 µM in data set [4] was 32%. The hemolysis at 1 h, 25 µM in data set [5] was found to be 7.95%.
Consider `C[C@@H](c1ccccc1)N(CC(=O)N(CCCCN)CC(=O)N(CC(=O)N(CC(=O)N(CCCCN)CC(=O)N(CC(=O)N(C[C@H](N)C(=O)NCC(=O)N[C@@H](Cc1c[nH]cn1)C(N)=O)[C@@H](C)c1ccccc1)[C@@H](C)c1ccccc1)[C@@H](C)c1ccccc1)[C@@H](C)c1ccccc1)C(=O)CN(C(=O)CN(CCCCN)C(=O)CN(CCc1c[nH]c2ccccc12)C(=O)CN(CCc1c[nH]c2ccccc12)C(=O)CNCCCCN)[C@@H](C)c1ccccc1` (H-[Nlys][Gly(N(CH2)2(3-indolyl))][Gly(N(CH2)2(3-indolyl))][Nlys][Nspe][Nspe][Nlys][Nspe][Nspe][Nlys][Nspe]-X2), for which the hemolysis at 1 h, 100 µM in data set [1] was 23.8%. In data set [2], the HC50 at 1 h is above 100 µM. In data set [3], the selectivity ratio came out at 1.2. Besides, the HC10 with Erythrocyte came to 31.9 µM. Further, the MIC in the data set with Escherichia coli worked out at 25 µM (≈ 53 µg/mL); with Staphylococcus aureus it was 3.1 µM (≈ 6.57 µg/mL). For the same compound, the hemolysis at 1 h, 50 µM in data set [4] was found to be 14%. In data set [5], the hemolysis at 1 h, 25 µM was 8.35%.
As for `C[C@@H](c1ccccc1)N(CC(=O)N(CCCCN)CC(=O)N(CC(=O)N(CC(=O)N(CCCCN)CC(=O)N(CC(=O)N(CC(N)=O)Cc1ccccc1)Cc1ccccc1)[C@@H](C)c1ccccc1)[C@@H](C)c1ccccc1)C(=O)CN(C(=O)CN(CCCCN)C(=O)CN(Cc1ccccc1)C(=O)CN(Cc1ccccc1)C(=O)CNCCCCN)[C@@H](C)c1ccccc1` (H-[Nlys][Nphe][Nphe][Nlys][Nspe][Nspe][Nlys][Nspe][Nspe][Nlys][Nphe][Nphe]-NH2), the hemolysis at 1 h, 100 µM in data set [1] stood at 60.9%. Besides, the HC50 at 1 h in data set [2] is 83 µM. Also, the selectivity ratio in data set [3] came to 3.5. Also, the HC10 with Erythrocyte was 22.3 µM. The MIC came out at 6.3 µM (≈ 11.1 µg/mL) in the data set on Escherichia coli and 3.1 µM (≈ 5.47 µg/mL) with Staphylococcus aureus. For the same compound, the hemolysis at 1 h, 50 µM in data set [4] is 29%. Moreover, the hemolysis at 1 h, 25 µM in data set [5] is 12.5%.
Take `C[C@@H](c1ccccc1)N(CC(=O)N(CCCCN)CC(=O)N(CC(=O)N(CC(=O)N(CCCCN)CC(=O)N(CC(=O)N(CC(=O)N(CCCCN)CC(=O)N(CC(=O)N(CC(N)=O)Cc1ccccc1)Cc1ccccc1)Cc1ccccc1)Cc1ccccc1)Cc1ccccc1)Cc1ccccc1)C(=O)CN(Cc1ccccc1)C(=O)CNCCCCN` (H-[Nlys][Nphe][Nspe][Nlys][Nphe][Nphe][Nlys][Nphe][Nphe][Nlys][Nphe][Nphe]-NH2): in data set [1], the hemolysis at 1 h, 100 µM was found to be 13.7%. For the same compound, the HC50 at 1 h in data set [2] was above 100 µM. Further, the selectivity ratio in data set [3] was 6.5. The HC10 with Erythrocyte was found to be 81.3 µM. In addition, the MIC stood at 12.5 µM (≈ 21.5 µg/mL) with Escherichia coli and 6.3 µM (≈ 10.8 µg/mL) in the data set with Staphylococcus aureus. Also, the hemolysis at 1 h, 50 µM in data set [4] was 3.75%. Further, the hemolysis at 1 h, 25 µM in data set [5] turned out to be 0.21%.
Take `C[C@@H](c1ccccc1)N(CC(=O)N(CCCCN)CC(=O)N(CC(=O)N(CC(=O)N(CCCCN)CC(=O)N(CC(=O)N(CC(=O)N(CCCCN)CC(=O)N(CCc1c[nH]c2ccccc12)CC(=O)N(CCc1c[nH]c2ccccc12)C[C@H](N)C(=O)NCC(=O)N[C@@H](Cc1c[nH]cn1)C(N)=O)[C@@H](C)c1ccccc1)[C@@H](C)c1ccccc1)[C@@H](C)c1ccccc1)[C@@H](C)c1ccccc1)C(=O)CN(C(=O)CNCCCCN)[C@@H](C)c1ccccc1` (H-[Nlys][Nspe][Nspe][Nlys][Nspe][Nspe][Nlys][Nspe][Nspe][Nlys][Gly(N(CH2)2(3-indolyl))]-X3): in data set [1], the hemolysis at 1 h, 100 µM came to 29%. Besides, the HC50 at 1 h in data set [2] was above 100 µM. Further, in data set [3], the selectivity ratio was 4. Further, the HC10 in the data set on Erythrocyte was 25.4 µM. Moreover, the MIC with Escherichia coli was found to be 6.3 µM (≈ 13.4 µg/mL); in the data set on Staphylococcus aureus it was 1.6 µM (≈ 3.39 µg/mL). In addition, the hemolysis at 1 h, 50 µM in data set [4] was found to be 20.3%. The hemolysis at 1 h, 25 µM in data set [5] stood at 11.1%.
For the compound `C[C@@H](c1ccccc1)N(CC(=O)N(CCCCN)CC(=O)N(CC(=O)N(CC(=O)N(CCCCN)CC(=O)N(CC(=O)N(CC(=O)N(CCCCN)CC(=O)N(CCc1c[nH]c2ccccc12)CC(=O)N(CCc1c[nH]c2ccccc12)CC(N)=O)[C@@H](C)c1ccccc1)[C@@H](C)c1ccccc1)[C@@H](C)c1ccccc1)[C@@H](C)c1ccccc1)C(=O)CN(C(=O)CNCCCCN)[C@@H](C)c1ccccc1` (H-[Nlys][Nspe][Nspe][Nlys][Nspe][Nspe][Nlys][Nspe][Nspe][Nlys][Gly(N(CH2)2(3-indolyl))][Gly(N(CH2)2(3-indolyl))]-NH2), the hemolysis at 1 h, 100 µM in data set [1] is 69.4%. In addition, the HC50 at 1 h in data set [2] is 63.8 µM. In addition, the selectivity ratio in data set [3] was found to be 1.2. Besides, the HC10 with Erythrocyte was 7.7 µM. In addition, the MIC in the data set with Escherichia coli amounted to 6.3 µM (≈ 12 µg/mL); in the data set on Staphylococcus aureus, 1.6 µM (≈ 3.04 µg/mL). The hemolysis at 1 h, 50 µM in data set [4] came out at 50.7%. In data set [5], the hemolysis at 1 h, 25 µM was determined as 29.9%.
